Type in all cases: functional
One assay has as its system Enterococcus faecium. As to the kind of experiment: Antimicrobial activity against Vancomycin-resistant (Van A) Enterococcus faecium ATCC 51559 assessed as reduction in microbial growth.
For assay [1], the system named is Staphylococcus aureus. The assay can be described thus: Antimicrobial activity against Vancomycin-resistant Staphylococcus aureus incubated for 20 hrs by broth dilution method. On the technique in general: Dilution methods test growth across graded concentrations, often in twofold steps.
Another assay deals with Enterococcus faecalis. As to the kind of experiment: Antimicrobial activity against Vancomycin - resistant Enterococcus faecalis assessed as inhibition of bacterial growth.
Assay [2] concerns Staphylococcus aureus. The assay can be described thus: Antibacterial activity against Vancomycin-intermediate Staphylococcus aureus NRS1 assessed as bacterial growth inhibition.
Setting [3] is: Enterococcus faecium, ATCC 51559, read-out: MIC.

Values after ≈ are worked out from the molar mass of the structure shown.

For orientation: MIC means the lowest concentration found to suppress growth. Take `CN[C@H](CC(C)C)C(=O)N[C@H]1C(=O)N[C@@H](CC(N)=O)C(=O)N[C@H]2C(=O)N[C@H]3C(=O)N[C@H](C(=O)N[C@H](C(=O)O)c4ccccc4-c4cccc3c4)[C@H](O)c3ccc(c(Cl)c3)Oc3cc2cc(c3O[C@@H]2O[C@H](CO)[C@@H](O)[C@H](O)[C@H]2O[C@H]2C[C@](C)(NCc3ccc(OCCCN4C(=O)[C@@H]5[C@H](C4=O)[C@@H](C)C[C@H]5/C=C/c4ccccc4)cc3)[C@H](O)[C@H](C)O2)Oc2ccc(cc2Cl)[C@H]1O`: the values for the minimal inhibitory concentration (MIC) in the assay with Enterococcus faecium and in the assay on Enterococcus faecium (setting [3]) were 2 µg/mL and 31 µg/mL, respectively.

In turn, `CN[C@H](CC(C)C)C(=O)N[C@H]1C(=O)N[C@@H](CC(N)=O)C(=O)N[C@H]2C(=O)N[C@H]3C(=O)N[C@H](C(=O)N[C@H](C(=O)NCCCCCCNC(=O)[C@H]4NC(=O)[C@H]5NC(=O)[C@H](NC(=O)[C@@H]6NC(=O)[C@H](CC(N)=O)NC(=O)[C@H](NC(=O)[C@@H](CC(C)C)NC)[C@H](O)c7ccc(c(Cl)c7)Oc7cc6cc(c7O[C@@H]6O[C@H](CO)[C@@H](O)[C@H](O)[C@H]6O[C@H]6C[C@](C)(N)[C@H](O)[C@H](C)O6)Oc6ccc(cc6Cl)[C@H]5O)c5ccc(O)c(c5)-c5c(O)cc(O)cc54)c4cc(O)cc(O)c4-c4cc3ccc4O)[C@H](O)c3ccc(c(Cl)c3)Oc3cc2cc(c3O[C@@H]2O[C@H](CO)[C@@H](O)[C@H](O)[C@H]2O[C@H]2C[C@](C)(N)[C@H](O)[C@H](C)O2)Oc2ccc(cc2Cl)[C@H]1O` returned a minimal inhibitory concentration (MIC) against Staphylococcus aureus [1] of 32 µM.

For `CN[C@H](CC(C)C)C(=O)N[C@H]1C(=O)N[C@@H](CC(N)=O)C(=O)N[C@H]2C(=S)N[C@H]3C(=O)N[C@H](C(=O)N[C@H](C(=O)O)c4cc(O)cc(O)c4-c4cc3ccc4O)[C@H](O)c3ccc(c(Cl)c3)Oc3cc2cc(c3O[C@@H]2O[C@H](CO)[C@@H](O)[C@H](O)[C@H]2O[C@H]2C[C@](C)(NCc3ccc(-c4ccc(Cl)cc4)cc3)[C@H](O)[C@H](C)O2)Oc2ccc(cc2Cl)[C@H]1O`, the MIC in the assay on Enterococcus faecium came to 2 µg/mL; in the assay with Enterococcus faecium (setting [3]), 4 µg/mL; in the assay with Enterococcus faecalis it was 2 µg/mL.

Regarding `CN[C@H](CC(C)C)C(=O)N[C@H]1C(=O)N[C@@H](CC(N)=O)C(=O)N[C@H]2C(=O)N[C@H]3C(=O)N[C@H](C(=O)N[C@H](C(=O)O)c4cc(OC)cc(OC)c4-c4cc3ccc4OC)[C@H](O)c3ccc(c(Cl)c3)Oc3cc2cc(c3OC)Oc2ccc(cc2Cl)[C@H]1O`, the MIC with Enterococcus faecium amounted to 1.6 µg/mL.

On to `CCCCCCCCCC(=O)OC[C@H]1O[C@@H](Oc2c3cc4cc2Oc2ccc(cc2Cl)[C@@H](O)[C@@H](NC(=O)[C@@H](CC(C)C)NC)C(=O)N[C@@H](CC(N)=O)C(=O)N[C@H]4C(=O)N[C@H]2C(=O)N[C@H](C(=O)N[C@H](C(=O)O)c4ccccc4-c4cccc2c4)[C@H](O)c2ccc(c(Cl)c2)O3)[C@H](O[C@H]2C[C@](C)(N)[C@H](O)[C@H](C)O2)[C@@H](O)[C@@H]1O`, for which, in the assay with Enterococcus faecium, the minimum inhibitory concentration (MIC) worked out at 1 µg/mL.

In the case of `CN[C@H]1C(=O)N[C@@H]2Cc3ccc(cc3)Oc3cc4cc(c3O[C@@H]3O[C@H](C(=O)O)[C@@H](O)[C@H](O)[C@H]3NC(=O)CCCCCCCCC(C)C)Oc3ccc(cc3Cl)[C@@H](O)[C@@H]3NC(=O)[C@H](NC(=O)[C@@H]4NC(=O)[C@@H](NC2=O)c2cc(cc(O)c2Cl)Oc2cc1ccc2O)c1ccc(O)c(c1)-c1c(O[C@H]2O[C@H](CO)[C@@H](O)[C@H](O)[C@@H]2O)cc(O)cc1[C@@H](C(=O)NCCCN(C)C)NC3=O` [DALBAVANCIN], the MIC with Enterococcus faecium stood at 0.1 µg/mL.

Take `CN[C@H](CC(C)C)C(=O)N[C@H]1C(=O)N[C@@H](CC(N)=O)C(=O)N[C@H]2C(=N)N[C@H]3C(=O)N[C@H](C(=O)N[C@H](C(=O)O)c4cc(O)cc(O)c4-c4cc3ccc4O)[C@H](O)c3ccc(c(Cl)c3)Oc3cc2cc(c3O[C@@H]2O[C@H](CO)[C@@H](O)[C@H](O)[C@H]2O[C@H]2C[C@](C)(N)[C@H](O)[C@H](C)O2)Oc2ccc(cc2Cl)[C@H]1O`: the minimal inhibitory concentration (MIC) in the assay on Enterococcus faecium (setting [3]) and in the assay with Enterococcus faecalis was 0.5 µg/mL throughout.

For the compound `CN[C@H](CC(C)C)C(=O)N[C@H]1C(=O)N[C@@H](CC(N)=O)C(=O)N[C@H]2C(=O)N[C@H]3C(=O)N[C@H](C(=O)N[C@H](C(=O)O)c4cc(O)cc(O)c4-c4cc3ccc4O)[C@H](O)c3ccc(c(Cl)c3)Oc3cc2cc(c3O[C@@H]2O[C@H](CO)[C@@H](O)[C@H](O)[C@H]2O[C@H]2C[C@](C)(NCc3cccc(OCC/C=C\CCOc4cccc(CN[C@@]5(C)C[C@H](O[C@H]6[C@H](Oc7c8cc9cc7Oc7ccc(cc7Cl)[C@@H](O)[C@@H](NC(=O)[C@@H](CC(C)C)NC)C(=O)N[C@@H](CC(N)=O)C(=O)N[C@H]9C(=O)N[C@H]7C(=O)N[C@H](C(=O)N[C@H](C(=O)O)c9cc(O)cc(O)c9-c9cc7ccc9O)[C@H](O)c7ccc(c(Cl)c7)O8)O[C@H](CO)[C@@H](O)[C@@H]6O)O[C@@H](C)[C@H]5O)c4)c3)[C@H](O)[C@H](C)O2)Oc2ccc(cc2Cl)[C@H]1O`, the MIC with Staphylococcus aureus [2] turned out to be 1 µg/mL (≈ 0.313 µM).

Take `C=C1NC(=O)[C@H]([C@@H](C)CC)NC(=O)[C@@H](NC(=O)/C(=C/C)NC(=O)[C@@H](N)[C@@H](C)CC)CSC[C@@H](C(=O)N[C@H]2C(=O)N3CCC[C@H]3C(=O)NCC(=O)N[C@H](C(=O)N[C@@H](CCCCN)C(=O)NCCCn3cc(CCC(=O)NCCCOCCOCCOCCCNC(=O)[C@H]4NC(=O)[C@H]5NC(=O)[C@H](NC(=O)[C@@H]6NC(=O)[C@H](CC(N)=O)NC(=O)[C@H](NC(=O)[C@@H](CC(C)C)NC)[C@H](O)c7ccc(c(Cl)c7)Oc7cc6cc(c7O[C@@H]6O[C@H](CO)[C@@H](O)[C@H](O)[C@H]6O[C@H]6C[C@](C)(N)[C@H](O)[C@H](C)O6)Oc6ccc(cc6Cl)[C@H]5O)c5ccc(O)c(c5)-c5c(O)cc(O)cc54)nn3)CS[C@@H]2C)NC(=O)[C@H]([C@@H](C)CC)NC1=O`: the MIC in the assay on Enterococcus faecalis amounted to 2.3 µM.

In the case of `CN[C@H](CC(C)C)C(=O)N[C@H]1C(=O)N[C@@H](CC(N)=O)C(=O)N[C@H]2C(=O)N[C@H]3C(=O)N[C@H](C(=O)N[C@H](C(=O)NCCCNCCCCCCCCNCCCNC(=O)[C@H]4NC(=O)[C@H]5NC(=O)[C@H](NC(=O)[C@@H]6NC(=O)[C@H](CC(N)=O)NC(=O)[C@H](NC(=O)[C@@H](CC(C)C)NC)[C@H](O)c7ccc(c(Cl)c7)Oc7cc6cc(c7O[C@@H]6O[C@H](CO)[C@@H](O)[C@H](O)[C@H]6O[C@H]6C[C@](C)(N)[C@H](O)[C@H](C)O6)Oc6ccc(cc6Cl)[C@H]5O)c5ccc(O)c(c5)-c5c(O)cc(O)cc54)c4cc(O)cc(O)c4-c4cc3ccc4O)[C@H](O)c3ccc(c(Cl)c3)Oc3cc2cc(c3O)Oc2ccc(cc2Cl)[C@H]1O`, the MIC in the assay with Enterococcus faecium amounted to 0.1 µM; in the assay with Enterococcus faecium (setting [3]), 48 µM.

For `CCCCCCCCCCCCCC(=O)N[C@@H](CCCCN)C(=O)N[C@@H](CCCCN)C(=O)N[C@@H](CCCCN)C(=O)NC(CCCCNC(=O)[C@H]1NC(=O)[C@H]2NC(=O)[C@H](NC(=O)[C@@H]3NC(=O)[C@H](CC(N)=O)NC(=O)[C@H](NC(=O)[C@@H](CC(C)C)NC)[C@H](O)c4ccc(c(Cl)c4)Oc4cc3cc(c4O[C@@H]3O[C@H](CO)[C@@H](O)[C@H](O)[C@H]3O[C@H]3C[C@](C)(N)[C@H](O)[C@H](C)O3)Oc3ccc(cc3Cl)[C@H]2O)c2ccc(O)c(c2)-c2c(O)cc(O)cc21)C(=O)O` (stereo partly specified), the minimal inhibitory concentration (MIC) against Staphylococcus aureus [1] was determined as 0.05 µg/mL; in the assay with Staphylococcus aureus [2] it was 0.03 µg/mL (≈ 0.0138 µM); in the assay on Enterococcus faecium, 0.125 µg/mL.

As to `CCCCCCCCCC(=O)O[C@H]1[C@H](O)[C@@H](O[C@H]2C[C@](C)(N)[C@H](O)[C@H](C)O2)[C@H](Oc2c3cc4cc2Oc2ccc(cc2Cl)[C@@H](O)[C@@H](NC(=O)[C@@H](CC(C)C)NC)C(=O)N[C@@H](CC(N)=O)C(=O)N[C@H]4C(=O)N[C@H]2C(=O)N[C@H](C(=O)N[C@H](C(=O)O)c4ccccc4-c4cccc2c4)[C@H](O)c2ccc(c(Cl)c2)O3)O[C@@H]1CO`, the MIC in the assay on Enterococcus faecium (setting [3]) worked out at 16 µg/mL.

For `CN[C@H](CC(C)C)C(=O)N[C@H]1C(=O)N[C@@H](CC(N)=O)C(=O)N[C@H]2C(=N)N[C@H]3C(=O)N[C@H](C(=O)N[C@H](C(=O)O)c4cc(O)cc(O)c4-c4cc3ccc4O)[C@H](O)c3ccc(c(Cl)c3)Oc3cc2cc(c3O[C@@H]2O[C@H](CO)[C@@H](O)[C@H](O)[C@H]2O[C@H]2C[C@](C)(NCc3ccc(-c4ccc(Cl)cc4)cc3)[C@H](O)[C@H](C)O2)Oc2ccc(cc2Cl)[C@H]1O`, the MIC in the assay with Enterococcus faecium stood at 0.06 µg/mL; with Enterococcus faecium (setting [3]) it was 0.005 µg/mL; in the assay on Enterococcus faecalis, 0.005 µg/mL.

As for `CN[C@H](CC(C)C)C(=O)N[C@H]1C(=O)N[C@@H](CC(N)=O)C(=O)N[C@H]2C(=O)N[C@H]3C(=O)N[C@H](C(=O)N[C@H](C(=O)O)c4cc(O)cc(O)c4-c4cc3ccc4O)[C@H](O)c3ccc(c(Cl)c3)Oc3cc2cc(c3O[C@@H]2O[C@H](CO)[C@@H](O)[C@H](O)[C@H]2O[C@H]2C[C@](C)(N)[C@H](O)[C@H](C)O2)Oc2ccc(cc2/C=C/c2ccc(-c3ccccc3)cc2)[C@H]1O`, the MIC in the assay on Enterococcus faecium was 2 µg/mL.

Regarding `CN[C@@H](CC(C)C)C(=O)N[C@@H]1C(=O)N[C@H](CC(N)=O)C(=O)N[C@@H]2C(=O)N[C@@H]3C(=O)N[C@@H](C(=O)N[C@@H](C(=O)NCCCSSCCCNC(=O)[C@H]4NC(=O)[C@H]5NC(=O)[C@H](NC(=O)[C@@H]6NC(=O)[C@H](CC(N)=O)NC(=O)[C@H](NC(=O)[C@@H](CC(C)C)NC)[C@H](O)c7ccc(c(Cl)c7)Oc7cc6cc(c7O[C@@H]6O[C@H](CO)[C@@H](O)[C@H](O)[C@H]6O[C@H]6C[C@](C)(N)[C@H](O)[C@H](C)O6)Oc6ccc(cc6Cl)[C@H]5O)c5ccc(O)c(c5)-c5c(O)cc(O)cc54)c4cc(O)cc(O)c4-c4cc3ccc4O)[C@@H](O)c3ccc(c(Cl)c3)Oc3cc2cc(c3O[C@@H]2O[C@H](CO)[C@@H](O)[C@H](O)[C@H]2O[C@H]2C[C@](C)(N)[C@H](O)[C@H](C)O2)Oc2ccc(cc2Cl)[C@@H]1O`, the MIC against Staphylococcus aureus [1] amounted to 15 µM.

For the compound `CC(=O)OCC1=C(C(=O)O)N2C(=O)[C@@H](NC(=O)CCC[C@@H](N)C(=O)O)[C@H]2SC1` [CEPHALOSPORIN C], the minimum inhibitory concentration (MIC) against Staphylococcus aureus [1] is 1 µg/mL; in the assay on Enterococcus faecalis, less than 0.5 µg/mL.

(Values after ChEMBL document CHEMBL5230081, “Battle against Vancomycin-Resistant Bacteria: Recent Developments in Chemical Strategies” (J Med Chem, 2019).)
